Where two headings read alike, the source gives them in different places.
Test system: pediatric patients with advanced solid tumors
Conditions: for Leukopenia (treatment-related AE): laboratory values only
Procedure: This phase 1, multicenter, open-label study was conducted at a total of 8 study sites (3 study sites in the United States and 5 Innovative Therapies for Children with Cancer [ITCC] Consortium centers [2 in the United Kingdom and 3 in France]) between January 31, 2012, and the data cutoff, January 14, 2014 (ClinicalTrials.gov identifier NCT01431534; European Clinical Trials Database [EudraCT] number 2011-000729-55). An enteric-coated tablet formulation of ridaforolimus was orally administered for 5 consecutive days and not administered for 2 consecutive days per week in 28-day cycles until progression, unacceptable toxicity, or consent withdrawal. […] Dose escalation was conducted by using a modified toxicity probability intervals method that targeted a 30% DLT rate and started at 22 mg/m^2 (the equivalent of the adult RP2D [27], a 40-mg dose in adults with a BSA of 1.8 m^2). […] Dosing was adjusted based on BSA and rounded to the nearest 10-mg tablet. Patients were to be treated at sequentially rising dose levels until a preliminary MTD was identified.
Toxicity was graded according to the National Cancer Institute Common Terminology Criteria for Adverse Events, version 4.0 [42]. Safety data were reported for all patients who received at least 1 dose of the study drug. […] Once the RP2D of ridaforolimus was defined, an expansion cohort to be treated at the RP2D was planned to obtain additional safety, tolerability, and pharmacokinetic data.

SMILES: CO[C@H]1C[C@@H]2CC[C@@H](C)[C@@](O)(O2)C(=O)C(=O)N2CCCC[C@H]2C(=O)O[C@H]([C@H](C)C[C@@H]2CC[C@@H](OP(C)(C)=O)[C@H](OC)C2)CC(=O)[C@H](C)/C=C(\C)[C@@H](O)[C@@H](OC)C(=O)[C@H](C)C[C@H](C)/C=C/C=C/C=C/1C [ridaforolimus]
- Patients with serious adverse events related to study treatment (22 mg/m^2, grade 3 oral herpes): 1 patient
- Stomatitis (treatment-related AE) (22 mg/m^2 n = 4, any grade): 2 (50) n (%)
- Thrombocytopenia (treatment-related AE) (22 mg/m^2 n = 4, any grade): 2 (50) n (%)
- Vomiting (treatment-related AE) (22 mg/m^2 n = 4, any grade): 1 (25) n (%)
- Leukopenia (treatment-related AE) (22 mg/m^2 n = 4, any grade): 1 (25) n (%)
- Anemia (treatment-related AE) (22 mg/m^2 n = 4, grades 3–4): 0 n (%)
- Decreased appetite (treatment-related AE) (22 mg/m^2 n = 4, grades 3–4): 0 n (%)
- Decreased weight (treatment-related AE) (22 mg/m^2 n = 4, grades 3–4): 0 n (%)
- Diarrhea (treatment-related AE) (22 mg/m^2 n = 4, grades 3–4): 0 n (%)
- Dry mouth (treatment-related AE) (22 mg/m^2 n = 4, grades 3–4): 0 n (%)
- Dysgeusia (treatment-related AE) (22 mg/m^2 n = 4, grades 3–4): 0 n (%)
- Epistaxis (treatment-related AE) (22 mg/m^2 n = 4, grades 3–4): 0 n (%)
- Fatigue (treatment-related AE) (22 mg/m^2 n = 4, grades 3–4): 0 n (%)
- Headache (treatment-related AE) (22 mg/m^2 n = 4, grades 3–4): 0 n (%)
- Hypercholesterolemia (treatment-related AE) (22 mg/m^2 n = 4, grades 3–4): 0 n (%)
- Hyperglycemia (treatment-related AE) (22 mg/m^2 n = 4, grades 3–4): 0 n (%)
- Hypertriglyceridemia (treatment-related AE) (22 mg/m^2 n = 4, grades 3–4): 0 n (%)
- Hypocalcemia (treatment-related AE) (22 mg/m^2 n = 4, grades 3–4): 0 n (%)
- Hypokalemia (treatment-related AE) (22 mg/m^2 n = 4, grades 3–4): 0 n (%)
- Hypophosphatemia (treatment-related AE) (22 mg/m^2 n = 4, grades 3–4): 1 (25) n (%)
- Increased ALT (treatment-related AE) (22 mg/m^2 n = 4, grades 3–4): 1 (25) n (%)
- Increased AST (treatment-related AE) (22 mg/m^2 n = 4, grades 3–4): 0 n (%)
- Increased alkaline phosphatase (treatment-related AE) (22 mg/m^2 n = 4, grades 3–4): 0 n (%)
- Increased bilirubin (treatment-related AE) (22 mg/m^2 n = 4, grades 3–4): 0 n (%)
- Increased γ-glutamyltransferase (treatment-related AE) (22 mg/m^2 n = 4, grades 3–4): 0 n (%)
- Lymphopenia (treatment-related AE) (22 mg/m^2 n = 4, grades 3–4): 0 n (%)
- Nausea (treatment-related AE) (22 mg/m^2 n = 4, grades 3–4): 0 n (%)
- Neutropenia (treatment-related AE) (22 mg/m^2 n = 4, grades 3–4): 0 n (%)
- Oral herpes (treatment-related AE) (22 mg/m^2 n = 4, grades 3–4): 1 (25) n (%)
- Patients with ≥1 treatment-related adverse event (22 mg/m^2 n = 4, grades 3–4): 2 (50) n (%)
- Photophobia (treatment-related AE) (22 mg/m^2 n = 4, grades 3–4): 0 n (%)
- Rash (treatment-related AE) (22 mg/m^2 n = 4, grades 3–4): 0 n (%)
- Stomatitis (treatment-related AE) (22 mg/m^2 n = 4, grades 3–4): 0 n (%)
- Thrombocytopenia (treatment-related AE) (22 mg/m^2 n = 4, grades 3–4): 0 n (%)
- Vomiting (treatment-related AE) (22 mg/m^2 n = 4, grades 3–4): 0 n (%)
- Leukopenia (treatment-related AE) (22 mg/m^2 n = 4, grades 3–4): 0 n (%)
- Stomatitis (treatment-related AE) (28 mg/m^2 n = 3, any grade): 3 (100) n (%)
- Thrombocytopenia (treatment-related AE) (28 mg/m^2 n = 3, any grade): 1 (33) n (%)
- Vomiting (treatment-related AE) (28 mg/m^2 n = 3, any grade): 0 n (%)
- Leukopenia (treatment-related AE) (28 mg/m^2 n = 3, any grade): 2 (67) n (%)
- Anemia (treatment-related AE) (28 mg/m^2 n = 3, grades 3–4): 0 n (%)
- Decreased appetite (treatment-related AE) (28 mg/m^2 n = 3, grades 3–4): 0 n (%)
- Decreased weight (treatment-related AE) (28 mg/m^2 n = 3, grades 3–4): 0 n (%)
- Diarrhea (treatment-related AE) (28 mg/m^2 n = 3, grades 3–4): 0 n (%)
- Dry mouth (treatment-related AE) (28 mg/m^2 n = 3, grades 3–4): 0 n (%)
- Dysgeusia (treatment-related AE) (28 mg/m^2 n = 3, grades 3–4): 0 n (%)
- Epistaxis (treatment-related AE) (28 mg/m^2 n = 3, grades 3–4): 0 n (%)
- Fatigue (treatment-related AE) (28 mg/m^2 n = 3, grades 3–4): 0 n (%)
- Headache (treatment-related AE) (28 mg/m^2 n = 3, grades 3–4): 0 n (%)
- Hypercholesterolemia (treatment-related AE) (28 mg/m^2 n = 3, grades 3–4): 1 (33) n (%)
- Hyperglycemia (treatment-related AE) (28 mg/m^2 n = 3, grades 3–4): 0 n (%)
- Hypertriglyceridemia (treatment-related AE) (28 mg/m^2 n = 3, grades 3–4): 0 n (%)
- Hypocalcemia (treatment-related AE) (28 mg/m^2 n = 3, grades 3–4): 0 n (%)
- Hypokalemia (treatment-related AE) (28 mg/m^2 n = 3, grades 3–4): 0 n (%)
- Hypophosphatemia (treatment-related AE) (28 mg/m^2 n = 3, grades 3–4): 0 n (%)
- Increased ALT (treatment-related AE) (28 mg/m^2 n = 3, grades 3–4): 1 (33) n (%)
- Increased AST (treatment-related AE) (28 mg/m^2 n = 3, grades 3–4): 0 n (%)
- Increased alkaline phosphatase (treatment-related AE) (28 mg/m^2 n = 3, grades 3–4): 0 n (%)
- Increased bilirubin (treatment-related AE) (28 mg/m^2 n = 3, grades 3–4): 0 n (%)
- Increased γ-glutamyltransferase (treatment-related AE) (28 mg/m^2 n = 3, grades 3–4): 0 n (%)
- Lymphopenia (treatment-related AE) (28 mg/m^2 n = 3, grades 3–4): 0 n (%)
- Nausea (treatment-related AE) (28 mg/m^2 n = 3, grades 3–4): 0 n (%)
- Neutropenia (treatment-related AE) (28 mg/m^2 n = 3, grades 3–4): 0 n (%)
- Oral herpes (treatment-related AE) (28 mg/m^2 n = 3, grades 3–4): 0 n (%)
- Patients with ≥1 treatment-related adverse event (28 mg/m^2 n = 3, grades 3–4): 2 (67) n (%)
- Photophobia (treatment-related AE) (28 mg/m^2 n = 3, grades 3–4): 0 n (%)
- Rash (treatment-related AE) (28 mg/m^2 n = 3, grades 3–4): 0 n (%)
- Stomatitis (treatment-related AE) (28 mg/m^2 n = 3, grades 3–4): 0 n (%)
- Thrombocytopenia (treatment-related AE) (28 mg/m^2 n = 3, grades 3–4): 1 (33) n (%)
- Vomiting (treatment-related AE) (28 mg/m^2 n = 3, grades 3–4): 0 n (%)
- Leukopenia (treatment-related AE) (28 mg/m^2 n = 3, grades 3–4): 0 n (%)
- Patients discontinued due to an adverse event (grade 5 gastric perforation related to underlying disease) (33 mg/m^2 (n = 13), 8%): 1 patients
- Patients with DLT (grade 3 increased ALT) (33 mg/m^2, 18 patients evaluable for DLTs overall): 1 patient
- Patients with serious adverse events related to study treatment (33 mg/m^2, grade 2 rectal pain, grade 2 seizure): 2 patients
- Stomatitis (treatment-related AE) (33 mg/m^2 n = 13, any grade): 10 (77) n (%)
- Thrombocytopenia (treatment-related AE) (33 mg/m^2 n = 13, any grade): 10 (77) n (%)
- Vomiting (treatment-related AE) (33 mg/m^2 n = 13, any grade): 2 (15) n (%)
- Leukopenia (treatment-related AE) (33 mg/m^2 n = 13, any grade): 4 (31) n (%)
- Anemia (treatment-related AE) (33 mg/m^2 n = 13, grades 3–4): 0 n (%)
- Decreased appetite (treatment-related AE) (33 mg/m^2 n = 13, grades 3–4): 0 n (%)
- Decreased weight (treatment-related AE) (33 mg/m^2 n = 13, grades 3–4): 0 n (%)
- Diarrhea (treatment-related AE) (33 mg/m^2 n = 13, grades 3–4): 0 n (%)
- Dry mouth (treatment-related AE) (33 mg/m^2 n = 13, grades 3–4): 0 n (%)
- Dysgeusia (treatment-related AE) (33 mg/m^2 n = 13, grades 3–4): 0 n (%)
- Epistaxis (treatment-related AE) (33 mg/m^2 n = 13, grades 3–4): 0 n (%)
- Fatigue (treatment-related AE) (33 mg/m^2 n = 13, grades 3–4): 0 n (%)
- Headache (treatment-related AE) (33 mg/m^2 n = 13, grades 3–4): 0 n (%)
- Hypercholesterolemia (treatment-related AE) (33 mg/m^2 n = 13, grades 3–4): 0 n (%)
- Hyperglycemia (treatment-related AE) (33 mg/m^2 n = 13, grades 3–4): 0 n (%)
- Hypertriglyceridemia (treatment-related AE) (33 mg/m^2 n = 13, grades 3–4): 1 (8) n (%)
- Hypocalcemia (treatment-related AE) (33 mg/m^2 n = 13, grades 3–4): 0 n (%)
- Hypokalemia (treatment-related AE) (33 mg/m^2 n = 13, grades 3–4): 0 n (%)
- Hypophosphatemia (treatment-related AE) (33 mg/m^2 n = 13, grades 3–4): 0 n (%)
- Increased ALT (treatment-related AE) (33 mg/m^2 n = 13, grades 3–4): 3 (23) n (%)
- Increased AST (treatment-related AE) (33 mg/m^2 n = 13, grades 3–4): 1 (8) n (%)
